Paper PMC10513951, “Identification of a dihydroorotate dehydrogenase inhibitor that inhibits cancer cell growth by proteomic profiling” (Oncology Research, 2023)

Target: T1, dihydroorotate dehydrogenase (DHODH) (Homo sapiens, UniProt Q02127)
T1 construct: N-terminal His-tagged DHODH/ΔTM; Met29–Arg395
Test: DCIP reduction enzyme assay with recombinant human DHODH
Format: biochemical

T1 sequence (Q02127 29-395): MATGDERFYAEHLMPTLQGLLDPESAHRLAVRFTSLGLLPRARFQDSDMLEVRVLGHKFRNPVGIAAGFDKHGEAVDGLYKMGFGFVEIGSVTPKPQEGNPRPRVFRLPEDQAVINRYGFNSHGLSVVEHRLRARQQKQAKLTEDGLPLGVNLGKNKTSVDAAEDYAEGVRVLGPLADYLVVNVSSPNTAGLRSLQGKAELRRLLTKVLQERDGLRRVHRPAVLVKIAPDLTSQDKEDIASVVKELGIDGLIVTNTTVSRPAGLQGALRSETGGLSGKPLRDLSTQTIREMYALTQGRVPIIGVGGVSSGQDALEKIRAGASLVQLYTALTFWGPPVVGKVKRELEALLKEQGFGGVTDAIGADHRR

| Compound | IC50 [nM] |
| --- | --- |
| Cc1cc(=O)oc2c1ccc1oc(C(=O)c3ccccc3)c(-c3ccccc3)c12 [NPD723, 8-Benzoyl-4-methyl-9-phenyl-2H-furo[2,3-h]-1-benzopyran-2-one] | 1520 |
| Cc1cc(=O)oc2c1ccc1oc(C(O)c3ccccc3)c(-c3ccccc3)c12 (centres unmarked) [H-006, 8-(Hydroxyphenylmethyl)-4-methyl-9-phenyl-2H-furo[2,3-h]-1-benzopyran-2-one] | 3.8 |
